Structures are written as SMILES. Active and inactive are the calls of the source. How the calls were made is not given here. A value given as a limit tells only on which side of the number the result lay.

The test system of the assay is INS-1E Gaussia luciferase insulin secretion, no glucose, luminescence. In words: insulin secretion activators without glucose, dose response, counter-screen for glucose-dependent insulin secretion activators, cell-based, INS-1E, Gaussia luciferase, luminescence, cherry-pick (AID 977606). On the technique in general: A counterscreen serves to expose hits that act by an unwanted route or on another target.
Regarding `CNC[C@@H](Cc1ccccc1)NC[C@@H](CC1CCCCC1)NCCCc1ccccc1`, the AC40 was 13.1 µM.

As to `Cc1ccc(C)c(C(=O)Nc2nc3ccccc3[nH]2)c1`, the AC40 was 4.67 µM.

On to `CCOc1cc(N2CCOCC2)c(OCC)cc1NC(=O)COC(=O)c1cc2ccccc2cc1O`, for which the AC40 is 4.74 µM.

Regarding `CC(NCC(O)COCCC12CC3CC(CC(C3)C1)C2)c1ccccc1` (configuration not stated), the AC40 is 8.21 µM.

With `O=C(Nc1cccc(Cl)c1)Nc1nc(-c2ccc(Cl)cc2)cs1`, the AC40 is > 35 µM (inactive).

Turning to `FC(F)(F)c1cc(CCN2CCNC[C@@H]2CC2CCCCC2)cc(C(F)(F)F)c1`, the AC40 is 4.05 µM.

In the case of `C=CCNc1nc(NCc2ccco2)nc(OCC)n1`, the AC40 is > 35 µM (inactive).

For the compound `COc1ccccc1C(=O)NC(=S)Nc1ccc2[nH]c(=O)[nH]c2c1`, the AC40 is 8.24 µM.

As for `CCOc1cc(/C=N/NC(=O)CCn2nc(C)cc2C)ccc1O`, the AC40 is 21.9 µM.

`CN(C)CCNC(=O)c1cc2c(s1)-c1ccc(Cl)cc1SC2`: the AC40 was 4.87 µM.

As to `C/C(=N\NC(=O)c1cccc(Br)c1)c1ccc(Br)cc1`, the AC40 is 13 µM.

For `NC(c1csc(Nc2ccc(C(F)(F)F)cn2)n1)C1CCCCC1` (configuration not stated), the AC40 was 5.02 µM.

As for `Cc1ccc(OCC(=O)NC(=S)Nc2cccc(NC(=O)c3ccccc3)c2)cc1`, the AC40 was 8.85 µM.

As for `COc1ccc(S(=O)(=O)Nc2ccccc2OC)cc1N=Nc1c(O)[nH]c(=S)[nH]c1=O`, the AC40 is 12.6 µM.

As to `OC[C@@H]1[C@@H](c2ccc(C#CC3CCCC3)cc2)[C@H]2CN(CCC(F)(F)F)CCCCN12`, the AC40 was 6.32 µM.

As for `Cc1ccc(NC(=O)CNC(=O)c2sc3ccccc3c2Cl)nc1`, the AC40 is 10.3 µM.

Consider `CS(=O)(=O)N(Cc1ccc(Cl)cc1)c1ccc(C(=O)NCCC2=CCCCC2)cc1`, for which the AC40 was 6.78 µM.

For `C/C(=N\NC(=O)c1ccc(Cl)c(Cl)c1)c1ccc(Br)s1`, the AC40 was 7.32 µM.

Consider `N#Cc1c(-c2cccc(Br)c2)cc(-c2cccnc2)nc1N`, for which the AC40 is 8.34 µM.

Regarding `C[C@@H]1CN([C@H](C)CO)S(=O)(=O)c2ccc(-c3ccc(F)cc3)cc2O[C@H]1CN(C)Cc1cccc(F)c1`, the AC40 was 17.7 µM.

On to `COc1ccccc1CCn1cnc(-c2ccc(F)cc2)c1CC(C)C`, for which the AC40 is 6.41 µM.

Take `COc1cc(OC)c2c(-c3ccccc3)cc(C3CCCCC3)nc2c1`: the AC40 is 12.1 µM.

On to `O=C(Cn1ncc(Cl)c(Cl)c1=O)Nc1ccc2c(c1)OCO2`, for which the AC40 was 8.01 µM.

Consider `C/C=C/c1ccc(C2[C@H]3CNC[C@@H]2N3Cc2cc(-c3ccccc3)on2)cc1` (some centres not stated), for which the AC40 was 6.73 µM.

`CCCCc1c(-c2ccccc2OC)ncn1C(C)c1ccc(Cl)cc1` (configuration not stated): the AC40 is 7.72 µM.

Consider `COc1ccc(C#Cc2ccc([C@@H]3[C@H](CO)N4CCCCN(Cc5ccccc5F)C[C@@H]34)cc2)cc1`, for which the AC40 was 9.33 µM.

On to `CC(C)(C)S(=O)N1Cc2cc(C(=O)Nc3ccc(-c4ccccc4)cc3)nc(-c3cccc(-c4cccc(F)c4)c3)c2[C@@H]1CCO` (some centres not stated), for which the AC40 is 13.4 µM.

Take `CCOC(=O)c1c(-n2cnnn2)sc2c1CCCC2`: the AC40 is > 35 µM (inactive).

Consider `Clc1ccc(/C=N/NC2=Nc3cccc4cccc2c34)cc1`, for which the AC40 is 2.88 µM.

Take `CCOC(=O)c1oc2ccccc2c1NC(=O)c1cccs1`: the AC40 was 12.6 µM.

`O=c1c2ccc(Cl)cc2[nH]c(=S)n1CCC1=CCCCC1`: the AC40 is 2.15 µM.

Turning to `N#Cc1cccc(Oc2ccc(-c3cnc4ccccc4n3)cc2)c1C#N`, the AC40 was 9.37 µM.

With `CCC(C)Sc1cccc(-c2nc3cnccn3c2NC2CCCCC2)c1` (configuration not stated), the AC40 is 4.26 µM.

In the case of `Cc1ccc(-n2sc3cc(F)ccc3c2=O)c(C)c1`, the AC40 was 0.883 µM.

For the compound `COc1ccc(CCNC(=O)C(=O)NN=C2CCCCCCC2)cc1OC`, the AC40 was 21.7 µM.

Take `O=C(CCN1CCOCC1)c1ccc2c(c1)OCCO2`: the AC40 was 33.2 µM.

In the case of `O=C(Nc1ccc2c(c1)OCO2)N1C[C@@H]2N[C@H](C1)C2c1ccc(C=Cc2ccccc2)cc1` (some centres not stated), the AC40 was 11.7 µM.

Regarding `Cc1ccc(CC2(OCCN(C)C)CCC(C(C)(C)C)CC2)cc1` (configuration not stated), the AC40 is 5.45 µM.

Consider `CC(=O)N(/N=C/c1cccc(C)c1)c1nc(-c2ccc(Br)cc2)cs1`, for which the AC40 was 2.15 µM.

In the case of `CCOc1ncccc1C(=O)NC(C)CCc1ccccc1` (configuration not stated), the AC40 is 16.2 µM.

Turning to `FC(F)(F)c1cc(CCN2CCNC[C@@H]2c2ccccc2)cc(C(F)(F)F)c1`, the AC40 was 7.26 µM.

`O=C(Nc1ccccc1)c1nnsc1S(=O)(=O)c1ccc(Cl)cc1`: the AC40 was 0.403 µM.

In the case of `N#Cc1sc2nc(N3CCCCC3)c3c(c2c1N)CCCC3`, the AC40 is 21.2 µM.

Consider `O=C(Nc1nc2ccccc2n1Cc1ccc(Cl)cc1)c1ccco1`, for which the AC40 was 6.72 µM.

On to `Cc1ccc(-n2cc(CNCCCn3ccnc3C)c(-c3ccc(F)cc3)n2)cc1`, for which the AC40 was 30.7 µM.

Regarding `CC(NC(=O)COC(=O)c1ccccc1Nc1ccccc1)c1ccccc1` (configuration not stated), the AC40 is 12.1 µM.

As to `CC(C)n1nc(C(=O)Nc2ccccc2N2CCOCC2)c2ccccc2c1=O`, the AC40 is 6.12 µM.

On to `COC(=O)c1sccc1NC(=O)COc1ccc(Cl)cc1Cl`, for which the AC40 is 6.02 µM.

For the compound `O=C1Nc2ccccc2N(C(=O)c2ccc3ccccc3c2)C1c1nc2ccccc2[nH]1` (configuration not stated), the AC40 was 6.41 µM.

With `COc1ccc(-c2cc3ccccc3oc2=O)cc1NC(=S)NC(=O)c1ccc2c(c1)OCCO2`, the AC40 was 1.2 µM.

For the compound `Cc1ccc(-c2cc(C(=O)NCc3cnn(C)c3)c3cc(Br)ccc3n2)cc1`, the AC40 was 1.24 µM.

`Cc1nc2ccccc2c2oc(C(=O)N3CCCC(C)C3)cc12` (configuration not stated): the AC40 is 16 µM.

Regarding `CC(C)COc1ccc(Br)cc1CNC(C)(C)C`, the AC40 is > 35 µM (inactive).

As to `CC(=O)Nc1cc(-c2cccc(C(=O)NCCN(C)C)c2)cn2c(-c3cccc(C(F)(F)F)c3)cnc12`, the AC40 was 8.13 µM.

In the case of `CC1(C(=O)NCC2CCCCC2)CCN1CCc1ccccc1` (configuration not stated), the AC40 is 17.9 µM.

For the compound `COc1cc(CN2C[C@@H]3N[C@H](C2)C3c2ccc(/C=C/c3ccccc3)cc2)cc(OC)c1` (some centres not stated), the AC40 was 1.76 µM.

On to `O=C(Nc1cccnc1)/C(N=Nc1cccnc1)=C(\O)c1ccccc1`, for which the AC40 is > 35 µM (inactive).

On to `COc1ccc(C(=O)Cc2ccc3c(c2)OCO3)c(O)c1`, for which the AC40 is 25 µM.

With `Cc1[nH]c2ccc(OC(F)(F)F)cc2c1CCNCc1ccc(Cl)cc1`, the AC40 was 5.89 µM.

As to `CCC(=O)Nc1sc(Cc2ccc3c(c2)OCO3)c(C)c1C(N)=O`, the AC40 was 7.01 µM.

Turning to `Cc1cc(OCCCN2CCC(C(O)(c3ccccc3)c3ccccc3)CC2)ccc1Br`, the AC40 is 3.84 µM.

In the case of `Cn1c(=O)oc2cc(S(=O)(=O)N3CCC(C(=O)Nc4ccc(OC(F)(F)F)cc4)CC3)ccc21`, the AC40 is 5.04 µM.

Turning to `C(=C\c1ccc(C2[C@@H]3CN(Cc4nccs4)C[C@H]2N3)cc1)/c1ccccc1` (some centres not stated), the AC40 is 9.48 µM.

With `OC(c1ccccc1)(c1ccccc1)C1CCN(CCCOc2ccc3c(c2)CCCC3)CC1`, the AC40 is 3.37 µM.

As for `CC(C)C(Cl)=NOC(=O)Nc1ccc(S(N)(=O)=O)cc1`, the AC40 is 4.58 µM.

Turning to `O=c1[nH]c(/C=C/c2ccc(OC(F)F)cc2)nc2c1cnn2-c1ccccc1`, the AC40 is 25.6 µM.

As for `CCCCCCCCN1C(=O)[C@@H](CC(=O)N2CCN(C(=O)c3ccco3)CC2)C[C@@]2(C(=O)OC)C1=C[C@H](C1CCCC1)O[C@@H]2C`, the AC40 was 9.46 µM.

The values are drawn from PubChem BioAssay AID977606 (Broad Institute, 2014).
